Values of other authors, collected in patent US20110166112A1, “METHOD FOR STIMULATING PLATELET PRODUCTION” (Eisai, Inc., priority 2009, published 2011).

System: subjects
Details: in eight days; cited from earlier work

CC1=NN(c2ccc(C)c(C)c2)C(=O)/C1=N\Nc1cccc(-c2cccc(C(=O)O)c2)c1O.NCCO.NCCO [Promacta®]
subjects who achieved a platelet response of 50,000/mm^3: 44-62%
